Legend:
[1] = test system: primary human keratinocytes; assay: cytotoxicity assay (Cell Titer96 Aqueous One) on keratinocytes; format: cell-based; details: 24 h
Description: (§1) Normal primary adult human keratinocytes derived from a donor were purchased from PromoCell (Heidelberg, Germany) and cultured in keratinocytes growth medium (Epilife+EDGS, Thermo Fisher Scientific, NY, USA). Keratinocytes cultures were maintained at 37° C. with 5% CO2 and ˜95% humidity.
(§2) Cytotoxicity was evaluated using the Cell Titer96 Aqueous One (Promega, Wis., USA) basic test according to manufacturer's instructions. Cells were seeded at a density of 10,000 cells/well in a 96-well plate and cultured overnight. Treatments with seven doses of compounds were carried out for 24 hours, in triplicates. Colorimetric analysis was performed using an absorbance of 490 nm. Inhibition of viability of more than 20% of the control values was considered cytotoxic.
The cytotoxicity assay on primary human keratinocytes from adult donor was performed after 24 h of culture in the presence of different concentrations of each compound, as indicated in FIG. 2A and Table 1.

[2] = test system: primary human fibroblasts; assay: cytotoxicity assay (Cell Titer96 Aqueous One) on fibroblasts; details: 24 h
Description: Normal human dermal adult fibroblasts derived from a donor of were purchased from CELLnTec (Bern, Switzerland) and grown in DMEM supplemented with 10% FBS (Life Technologies, CA, USA). Fibroblasts cultures were maintained at 37° C. with 5% CO2 and ˜95% humidity.
as §2
The cytotoxicity assay on primary human fibroblasts from adult donor was performed after 24 h of culture in the presence of different concentrations of each compound, as indicated in FIG. 2B and Table 2.

[3] = biological target: T1, CUL4A (Mus musculus, UniProt Q3TCH7); assay: cell-based assay, inhibition of DDB2 degradation in MEF cells after UV; details: DDB2 remaining after UV treatment over baseline compared to DMSO control
T1 construct: endogenous in cells; host or cells: mouse embryonic fibroblast (MEF) cells
Description: (§3) A BPB-CUL4A AlphaLISA assay was performed using the 54 compounds to determine their CUL4A inhibitory properties in vitro. Next, these 54 leads were tested for their cell-based inhibitory activity against CUL4A. A first cell-based assay involved the inhibition of DNA damage-binding protein 2 (DDB2) degradation in mouse embryonic fibroblast (MEF) cells in vitro. To determine the specificity of the compounds, another cell-based assay was performed to determine the inhibition of IKBa degradation in HeLa cells in vitro. Preferably, the compounds show high DDB2 inhibition and less inhibition of IKBa degradation. IkBa is a target of […], and this assay provides insight into the specificity of the compounds. These tests led to the selection of three active compounds that passed inhibition and selectivity thresholds and, thus, were suitable for use in cosmetic compositions. These were thymoquinone, lapachol and myrtucommulone C.
In this cell-based assay, the % is DDB2 ([…]) remaining after UV treatment over baseline compared to a control group. In the DMSO control group, the DDB2 remaining % was between 20-30%.

[4] = test system: human fibroblast cell; assay: Human Fibroblast Cell Assay: CPD ELISA of DNA damage after UVB; format: cell-based; details: UVB 35 mJ/cm^2, 12 hours
Description: Lastly, tests were conducted on human skin cells. The testing was performed using neonatal foreskin […], a type of skin cell that is a common model for skin testing across the cosmetic industry. The skin cells were purchased from Thermo Fisher Scientific Co. (NY) and grown in Dulbecco Modified Eagle Medium (DMEM) supplemented with 10% Fetal Bovine Serum (Thermo Fisher Scientific). Cultures were maintained at 37° C. within an air atmosphere of 5% carbon dioxide and about 95% humidity.
The skin cells were seeded in 12-well plates and incubated for 24 hours. After incubation, the cells were washed in […] (PBS) and irradiated with UVB at a dosage of 35 mJ/cm^2 using a Viber Lourmat BIO-Sun System (Marne-la-Vallee, France). The test compounds and control materials were added to the medium immediately following UVB irradiation; the treated mediums were allowed to continue for 12 hours at 37° C. under the air atmosphere with 5% carbon dioxide at about 95% humidity. In parallel, each test compound was added to non-irradiated cells as baseline controls. Untreated cells were used as negative controls. All treatments were performed in triplicate. Dosage levels for samples were 12.5 microMolar except lapachol dosed at 3 microMolar. Following incubation, the cells were washed with PBS, collected and stored at −80° C.
DNA was extracted from the collected cells using a QIAamp Blood Kit (QIAGEN, Calif., USA) in accordance with the manufacturer's protocol. The amounts of cyclobutane pyrimidine dimers (CPDs) in the various samples were determined by the CPD ELISA protocol. In accordance with this protocol, an OXISELECT® UV-Induced DNA Damage ELISA Kit (Cell Biolabs Inc., CA, USA) was employed for the testing done in accordance with the manufacturer's instructions. Amounts of CPD in UVB-treated samples were determined in percentage relative to the value of untreated fibroblasts. The greater the measured % CPD, the greater the DNA damage. Thus, in the Table below, the smaller the “Avg (% Untreated)” value, the better is the UVB damage induced inhibitory effect.
Mean standard deviation comparisons between data groups employed the GraphPad Prism 6.05 software (GraphPad Software, CA, USA). Statistical analysis was performed using ANOVA with Holm-Sidak's test or unpaired t-test with Welch's correction.

[5] = biological target: CUL4A (Homo sapiens, UniProt Q13619); assay: BPB-CUL4A AlphaLISA assay (cell free CUL4 inhibition assay); format: biochemical
Description: as §3
The Table below reports the ability of compounds to disrupt CUL4A activity in vitro (in a cell free CUL4 inhibition assay) ascertained from the BPB-CUL4A AlphaLISA assay. Activity above 30% was set to distinguish true hits from false positives.

[6] = test system: human fibroblasts; assay: microarray analysis of differential gene expression in fibroblasts; format: cell-based
[7] = test system: human epidermal keratinocytes; assay: microarray analysis of differential gene expression in keratinocytes; details: for number of genes downregulated / number of genes upregulated: 24 h
Description: as §1
Normal primary human keratinocytes were seeded in 6-well plates and incubated for 24 h. Cells were then washed in PBS (Thermo Fisher Scientific) and reincubated for 24 more hours in the presence of RGN1518 and RGN1538 (each at two different concentrations), vehicle control, or positive control. Following treatment, the cells were washed with PBS, collected and stored frozen at −80° C. before RNA extraction.
RNA was extracted using a Qiagen RNeasy kit (Qiagen, CA, USA) according to manufacturer's protocol.
18 vials containing RNA isolated from human epidermal keratinocytes and 18 vials containing RNA isolated from human fibroblasts were shipped to Thermo Fisher Scientific, Advanced BioMedical Laboratories (Cinnaminson, N.J.) on dry ice for Affymetrix Human Clariom D array processing.
The differential gene expression was obtained using a threshold of 0.05 for statistical significance (p-value) and a log fold change of expression with absolute value of at least 1. Gene expression was further analysed using Differential Expression Analysis and Pathway Analysis iPathwayGuide) by Advaita Bioinformatics Services (Plymouth, Mich.) in the context of pathways obtained from the Kyoto Encyclopedia of Genes and Genomes (KEGG) database (Release 84.0+/10-26, October 17) (Kanehisa et al., 2000; Kanehisa et al., 2002), gene ontologies from the Gene Ontology Consortium database (2017 Nov. 6) (Ashburner et al., 2000; Gene Ontology Consortium, 2001), miRNAs from the miRBase (Release 21) and […] (Targetscan version:Mouse:7.1, Human:7.1) databases (Agarwal et al., 2015; Nam et al., 2014; Griffiths-Jones et al., 2008; Kozomara and Griffiths-Jones, 2014; Friedman et al., 2009; Grimson et al., 2007), and diseases from the KEGG database (Release 84.0+/10-26, October 17) (Kanehisa et al., 2000; Kanehisa et al., 2002). All references are available in the reports for bioinformatics analysis of differential gene expression provided by Advaita Bioinformatics Services at the following link.

Chain of CUL4A (Homo sapiens, UniProt Q13619) (Q13619 whole entry, species assumed): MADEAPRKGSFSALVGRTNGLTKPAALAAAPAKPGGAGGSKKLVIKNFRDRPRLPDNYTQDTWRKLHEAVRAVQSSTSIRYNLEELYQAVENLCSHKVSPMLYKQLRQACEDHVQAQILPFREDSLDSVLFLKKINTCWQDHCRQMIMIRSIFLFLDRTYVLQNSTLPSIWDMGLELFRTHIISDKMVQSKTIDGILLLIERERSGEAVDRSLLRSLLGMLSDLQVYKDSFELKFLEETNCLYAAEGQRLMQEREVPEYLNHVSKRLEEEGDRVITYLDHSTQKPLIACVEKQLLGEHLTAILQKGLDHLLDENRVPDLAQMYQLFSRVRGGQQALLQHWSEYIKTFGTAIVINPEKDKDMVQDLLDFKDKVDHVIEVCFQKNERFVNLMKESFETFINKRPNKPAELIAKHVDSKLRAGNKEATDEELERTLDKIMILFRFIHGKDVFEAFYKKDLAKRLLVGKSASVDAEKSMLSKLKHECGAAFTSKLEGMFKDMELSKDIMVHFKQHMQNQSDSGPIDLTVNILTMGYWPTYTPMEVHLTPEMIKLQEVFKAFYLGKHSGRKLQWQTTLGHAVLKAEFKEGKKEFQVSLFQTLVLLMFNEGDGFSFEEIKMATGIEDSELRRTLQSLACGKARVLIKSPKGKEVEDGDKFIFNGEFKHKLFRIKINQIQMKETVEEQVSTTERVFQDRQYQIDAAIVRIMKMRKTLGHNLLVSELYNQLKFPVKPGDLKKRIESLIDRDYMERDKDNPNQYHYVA
T1 sequence (Q3TCH7 whole entry): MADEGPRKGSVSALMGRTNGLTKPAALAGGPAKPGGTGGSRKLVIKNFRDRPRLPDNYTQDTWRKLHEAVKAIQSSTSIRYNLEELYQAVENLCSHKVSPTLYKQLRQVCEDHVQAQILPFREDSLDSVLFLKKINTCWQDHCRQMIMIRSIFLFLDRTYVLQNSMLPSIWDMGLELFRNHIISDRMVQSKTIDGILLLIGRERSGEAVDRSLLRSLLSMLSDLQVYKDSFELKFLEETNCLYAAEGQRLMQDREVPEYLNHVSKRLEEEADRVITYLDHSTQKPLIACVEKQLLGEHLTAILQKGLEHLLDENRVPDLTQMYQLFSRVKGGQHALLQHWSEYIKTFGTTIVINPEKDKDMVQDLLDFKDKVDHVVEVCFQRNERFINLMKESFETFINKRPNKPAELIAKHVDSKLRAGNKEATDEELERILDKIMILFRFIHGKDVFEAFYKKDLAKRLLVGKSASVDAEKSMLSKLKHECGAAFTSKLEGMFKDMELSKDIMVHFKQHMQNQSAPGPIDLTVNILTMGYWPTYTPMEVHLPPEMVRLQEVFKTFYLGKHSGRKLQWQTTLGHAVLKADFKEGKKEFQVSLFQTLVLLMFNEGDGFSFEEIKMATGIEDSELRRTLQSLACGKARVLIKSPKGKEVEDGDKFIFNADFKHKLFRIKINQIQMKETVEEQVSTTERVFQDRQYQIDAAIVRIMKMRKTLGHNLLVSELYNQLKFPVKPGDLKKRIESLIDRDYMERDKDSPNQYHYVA

## CC(C)=CCC1=C(O)C(=O)c2ccccc2C1=O [Lapachol, 2-hydroxy-3-(3-methylbut-2-enyl)naphthalene-1,4-dione]
[1]; 15.5 μM
  Avg (% of untreated): 86%
[1]; 31.1 μM
  Avg (% of untreated): 86%
[1]; 62.25 μM
  Avg (% of untreated): 84%
[1]; cytotoxic = inhibition of viability of more than 20%
  concentrations that showed no cytotoxicity: up to 62.25 μM
[2]; 15.5 μM
  Avg (% of untreated): 99%
[2]; 31.1 μM
  Avg (% of untreated): 98%
[2]; 62.25 μM
  Avg (% of untreated): 100%
[2]; unit not given
  concentrations that showed no cytotoxicity: up to 62.25
[3]
  DDB2 remaining after UV (% of baseline): 80%
[4]; 3 microMolar
  Avg (% Untreated): 2076%
[5]
  % Inhibitory Activity: 34.4%
[6]; 31 μM, 24 h, of 24905 genes
  number of genes downregulated: 30 genes
  number of genes upregulated: 104 genes
[6]; at either concentration
  expression of RGCC and PTGS2 (regulation of fibroblast growth factor production): upregulated
[6]; out of 70 genes
  number of genes involved in regulation of endothelial cell migration upregulated: 3 genes
[7]
  gene expression in Metabolism of Xenobiotics by Cytochrome P450 and Steroid Hormone Biosynthesis Pathways: induced differential gene expression
[7]; 31 μM, of 24905 assessed genes
  number of genes downregulated: 556 genes
  number of genes upregulated: 250 genes
[7]; 62 μM
  number of genes downregulated: 461 genes
  number of genes upregulated: 258 genes
[7]; CYP1A1, CYP1B1, CYP2BG, GSTM3, AKR1C1, AKR1C2, AKR1C3, AKR1B15
  expression of phase-I detoxification and steroid hormone biosynthesis genes: upregulated
[7]; FGF2, CSF1, SLCO2A1, SERPINB1
  expression of genes important for normal differentiation and function of skin: upregulated
[7]; IL6, IL1R2, IL2RG, IL1RL1
  expression of genes associated with inflammation: upregulated
[7]; MAD2L1, CDC20, CCNE2, CCNA2, CCNB2, CCNB1, BUB1, PLK1, CDC25C, BUB1B, TTK, ORC1, MCM6
  expression of Cell Cycle Pathway genes: downregulated

## CC(C)C(=O)c1c(O)c(C(C2=C(O)C(C)(C)C(=O)C(C)(C)C2=O)C(C)C)c(O)c2c1OC1=C(C(=O)C(C)(C)C(=O)C1(C)C)C2C(C)C (centres unmarked) [Myrtucommulone C, myrtucommulone C]
[3]
  DDB2 remaining after UV (% of baseline): 115%
[4]; 12.5 microMolar
  Avg (% Untreated): 1362%
[5]
  % Inhibitory Activity: 48.9%

## NC(=O)c1cccnc1 [Niacinamide, reference compound]
[1]; 3.1 mM
  Avg (% of untreated): 105%
[1]; 6.2 mM
  Avg (% of untreated): 106%
[1]; 12.5 mM
  Avg (% of untreated): 104%
[1]; 25 mM
  Avg (% of untreated): 108%
[1]; 50 mM
  Avg (% of untreated): 95%
[1]; 100 mM
  Avg (% of untreated): 58%
[1]; 200 mM
  Avg (% of untreated): 46%
[1]
  concentrations that showed no cytotoxicity: up to 50 mM
[2]; 3.1 mM
  Avg (% of untreated): 100%
[2]; 6.2 mM
  Avg (% of untreated): 99%
[2]; 12.5 mM
  Avg (% of untreated): 97%
[2]; 25 mM
  Avg (% of untreated): 100%
[2]; 50 mM
  Avg (% of untreated): 91%
[2]; 100 mM
  Avg (% of untreated): 89%
[2]; 200 mM
  Avg (% of untreated): 61%
[2]
  concentrations that showed no cytotoxicity: up to 100 mM
[4]; 12.5 microMolar
  Avg (% Untreated): 2216%
[6]
  Mineral Absorption Pathway: affected
  vascular wound healing, spreading of epidermal cells and vasculature development (gene profile): no effect
[7]
  expression of ASS1 and PTGS2: affected
  expression of DNAJB9: downregulated
  expression of IL1RG and IL1RL1 receptors: no effect
  expression of IL6 and IL1RL1 receptor: upregulated
  expression of TYMS: downregulated
  expression of VEGFA: no effect
  gene expression in Metabolism of Xenobiotics by Cytochrome P450 and Steroid Hormone Biosynthesis Pathways: no major effect
[7]; CDK1, PLK1, RB1, CDC25C, CDC25B, MAD2L1, CDKN2B, CCNA2, MAD1L1, TTK, ZBTB17, RBL1, CCNB1, CCNB2, BUB1, CDC20, PTTG1, BUB1B
  expression of cell cycle genes: downregulated only some of the genes
[7]; COG6, ARFGAP3, IFT20
  expression of Golgi apparatus genes with the exception of MGAT4A: not affected
[7]; compared with RGN1518
  expression of FGF2: upregulated FGF2 to lesser extend

## CC1=CC(=O)C(C(C)C)=CC1=O [Thymoquinone, 2-isopropyl-5-methylbenzo-1,4-quinone]
[3]
  DDB2 remaining after UV (% of baseline): 85%
[4]; 12.5 microMolar
  Avg (% Untreated): 2554%
[5]
  % Inhibitory Activity: 70.4%

Source: patent publication US11013673B2, “Cosmetic compositions containing quinones and their topical use on skin and hair” (Repairogen Corp, priority 2016, dated 2021)
